Laboratory results: ChEMBL document CHEMBL1201862, “PubChem BioAssay data set” (2004)
Activity calls are given as the source filed them.

Columns and labels:
[1] = target: Sphingosine 1-phosphate receptor 2 (Homo sapiens, UniProt O95136); assay: Dose Response Cell Based Assay for Agonists of the S1P2 Receptor. [Related pubchem assays: 729, 736, 843 ]; type: functional
Danio rerio = assay: In Vivo Angiogenesis Dose-Response Confirmation. [Related pubchem assays: 732 (Assay preceding this confirmatory assay.)]; type: functional, organism-based
[2] = Vero cell cytotoxicity, dose response, cytotoxicity control for Vif-APOBEC3G degradation inhibitor project, Vero cells (AID 1117358); type: functional; conditions: Human immunodeficiency virus 1, Vero
[3] = target: Bifunctional protein GlmU (Mycobacterium tuberculosis, UniProt P9WMN3); assay: Inhibitors of Mycobacterial Glucosamine-1-phosphate acetyl transferase (GlmU). Secondary screen.; set-up: species or system Mycobacterium tuberculosis H37Rv
Genome polyprotein = Genome polyprotein (dengue virus type 2, UniProt P29990); assay: Dengue-2 NS5 methyltransferase inhibitors, primary screen, biochemical, confirmation dose response (AID 588689); type: functional
[4] = target: T1, Carboxy-terminal domain RNA polymerase II polypeptide A small phosphatase 1 (Homo sapiens, UniProt Q9GZU7); assay: inhibitors of CTDSP1, concentration-response testing, biochemical assay, absorbance-based, actives from ultra-high-throughput screening (AID 540297); type: functional
T1 sequence (Q9GZU7 whole entry): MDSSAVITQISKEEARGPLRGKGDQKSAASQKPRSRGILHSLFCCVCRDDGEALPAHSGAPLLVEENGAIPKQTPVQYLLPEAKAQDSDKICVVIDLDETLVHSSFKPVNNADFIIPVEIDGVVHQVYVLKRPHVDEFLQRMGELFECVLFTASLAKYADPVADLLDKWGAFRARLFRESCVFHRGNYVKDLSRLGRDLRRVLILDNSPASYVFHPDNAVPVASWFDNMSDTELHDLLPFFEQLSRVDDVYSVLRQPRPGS

[5] = target: Tyrosine-protein phosphatase non-receptor type 11 (Homo sapiens, UniProt Q06124); assay: SHP2 phosphatase inhibition, dose response, selectivity assay for STEP inhibitor project, biochemical (AID 602367); type: functional; conditions: read-out: IC50_Mean
[6] = target: Tyrosine-protein phosphatase non-receptor type 5 (Homo sapiens, UniProt P54829); assay: STEP phosphatase inhibitors, confirmation, biochemical, fluorescence intensity, uHTS hits (AID 602372); type: functional; conditions: read-out: IC50_Mean
[7] = target: Dual specificity protein phosphatase 3 (Homo sapiens, UniProt P51452); assay: VHR phosphatase inhibition, dose response, selectivity assay for STEP inhibitor project, biochemical (AID 602374); type: functional; conditions: read-out: IC50_Mean
[8] = target: Lysine-specific demethylase 4C (Homo sapiens, UniProt Q9H3R0); assay: GASC-1 (JMJD2C) histone demethylase inhibitors, dose response, biochemical, DELFIA europium, cherry-picked samples (AID 488835); type: functional
Transthyretin = Transthyretin (Homo sapiens, UniProt P02766); assay: Luminescence-based cell-based high throughput dose response assay to identify activators of Transthyretin (TTR) transcription.; type: functional
[9] = target: G-protein coupled receptor 183 (Homo sapiens, UniProt P32249); assay: SAR confirmation of small molecule antagonists of the EBI2 receptor via a luminescent beta-arrestin assa.; type: functional
Leucine aminopeptidase = target: T2, Leucine aminopeptidase (Plasmodium falciparum 3D7, UniProt Q8IL11); assay: P. falciparum M17LAP inhibitors, primary screen, biochemical, fluorogenic H-Leu-NHMec substrate, 1536-well (AID 1619); type: functional
T2 sequence (Q8IL11 whole entry): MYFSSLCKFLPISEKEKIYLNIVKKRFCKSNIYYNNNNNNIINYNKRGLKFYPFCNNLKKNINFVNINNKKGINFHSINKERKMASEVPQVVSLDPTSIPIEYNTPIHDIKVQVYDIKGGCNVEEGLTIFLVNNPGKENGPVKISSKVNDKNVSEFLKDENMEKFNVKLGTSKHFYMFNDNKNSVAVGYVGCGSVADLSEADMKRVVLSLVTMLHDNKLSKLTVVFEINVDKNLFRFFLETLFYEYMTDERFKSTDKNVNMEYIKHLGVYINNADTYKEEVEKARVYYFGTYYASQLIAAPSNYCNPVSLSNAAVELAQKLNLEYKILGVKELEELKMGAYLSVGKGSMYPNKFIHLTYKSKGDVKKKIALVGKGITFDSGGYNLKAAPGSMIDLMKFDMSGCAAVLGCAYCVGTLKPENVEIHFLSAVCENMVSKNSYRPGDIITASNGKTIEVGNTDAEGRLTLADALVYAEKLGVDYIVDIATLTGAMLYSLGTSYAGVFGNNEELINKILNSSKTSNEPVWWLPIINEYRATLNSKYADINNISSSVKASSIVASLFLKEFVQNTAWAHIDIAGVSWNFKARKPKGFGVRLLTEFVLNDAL

[10] = target: Heat shock protein HSP 90-alpha (Homo sapiens, UniProt P07900); assay: Luminescence-based dose response biochemical high throughput screening assay for inhibitors of the Heat Shock Protein 90 (HSP90). [Related pubchem assays: 1831 (Summary AID.), 1846 (Confirmation screen.), 1789 (Primary screen.)]
[11] = Concentration-dependent survival of SW480 colon cancer line, luminescence detection with CellTiter-Glo, half-maximal inhibitory concentration (AID 1117338); type: functional
[12] = RKO cell viability reduction, dose response, CellTiter-Glo luminescence (AID 1117322); type: functional
[13] = cytotoxicity toward HCT116 cells – cell-based, CellTiter-Glo luminescence, IC50, dose response (AID 1117332); type: functional; conditions: HCT-116
[14] = SNU-C1 cell viability reduction, dose response, CellTiter-Glo luminescence (AID 1117323); type: functional, cell-based
[15] = cytotoxicity toward Colo320 cells – cell-based, CellTiter-Glo luminescence, IC50, dose response (AID 1117334); type: functional; conditions: COLO 320
[16] = cytotoxicity toward HT-29 cells – cell-based, CellTiter-Glo luminescence, IC50, dose response (AID 1117330); type: functional
[17] = CellTiter-Glo luminescent dose response of DLD-1 viability loss (AID 1117352); type: functional
[18] = HCT116 cell viability decrease, GSK3B pretreatment – CellTiter-Glo, IC50, dose response (AID 1117339); type: functional; conditions: HCT-116
Keap1/Nrf2 = Keap1/Nrf2 (Homo sapiens, UniProt Q14145); assay: Keap1-Nrf2 protein-protein interaction inhibitors, dose response, biochemical, fluorescence polarization, cherry-picked samples (AID 588683)
[19] = target: Glutathione-S-transferase (Schistosoma japonicum, UniProt Q26513); assay: biotin-GST/anti-GST TR-FRET signal inhibitors, dose response, artefact control for Vif-APOBEC3G degradation inhibitor project, biochemical (AID 1117362); type: functional
[20] = P. falciparum late gametocyte killing, dose response, luminescence (AID 1117278); type: functional, cell-based;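 also: gametocytes exposed to compound for 24 hours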
[21] = Jurkat T cell cytotoxicity, dose response, cytotoxicity control for P. falciparum gametocyte viability project, luminescence (AID 1117277); type: functional, cell-based;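 also: potency reflects loss of cellular ATP meaning fewer viable cells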
Aspartyl aminopeptidase = Aspartyl aminopeptidase (Plasmodium falciparum 3D7, UniProt Q8I2J3); assay: Counterscreen for inhibitors of M1 and M17 aminopeptidases: QFRET-based biochemical high throughput dose response assay for inhibitors of the Plasmodium falciparum M18 Aspartyl Aminopeptidase (PFM18AAP). [Related PubChem assays: 1619 (Screening assay (M17LAP inhibitors).), 1445 (Screening assay (M1AAP inhibitors).)]
Aminopeptidase N = target: T3, Aminopeptidase N (Plasmodium falciparum FcB1/Columbia, UniProt O96935); assay: P. falciparum M1AAP inhibitors, biochemical, fluorogenic H-Leu-NHMec substrate, 1536-well (AID 1445); set-up: species or system Plasmodium falciparum 3D7, 3D7
T3 sequence (O96935 whole entry): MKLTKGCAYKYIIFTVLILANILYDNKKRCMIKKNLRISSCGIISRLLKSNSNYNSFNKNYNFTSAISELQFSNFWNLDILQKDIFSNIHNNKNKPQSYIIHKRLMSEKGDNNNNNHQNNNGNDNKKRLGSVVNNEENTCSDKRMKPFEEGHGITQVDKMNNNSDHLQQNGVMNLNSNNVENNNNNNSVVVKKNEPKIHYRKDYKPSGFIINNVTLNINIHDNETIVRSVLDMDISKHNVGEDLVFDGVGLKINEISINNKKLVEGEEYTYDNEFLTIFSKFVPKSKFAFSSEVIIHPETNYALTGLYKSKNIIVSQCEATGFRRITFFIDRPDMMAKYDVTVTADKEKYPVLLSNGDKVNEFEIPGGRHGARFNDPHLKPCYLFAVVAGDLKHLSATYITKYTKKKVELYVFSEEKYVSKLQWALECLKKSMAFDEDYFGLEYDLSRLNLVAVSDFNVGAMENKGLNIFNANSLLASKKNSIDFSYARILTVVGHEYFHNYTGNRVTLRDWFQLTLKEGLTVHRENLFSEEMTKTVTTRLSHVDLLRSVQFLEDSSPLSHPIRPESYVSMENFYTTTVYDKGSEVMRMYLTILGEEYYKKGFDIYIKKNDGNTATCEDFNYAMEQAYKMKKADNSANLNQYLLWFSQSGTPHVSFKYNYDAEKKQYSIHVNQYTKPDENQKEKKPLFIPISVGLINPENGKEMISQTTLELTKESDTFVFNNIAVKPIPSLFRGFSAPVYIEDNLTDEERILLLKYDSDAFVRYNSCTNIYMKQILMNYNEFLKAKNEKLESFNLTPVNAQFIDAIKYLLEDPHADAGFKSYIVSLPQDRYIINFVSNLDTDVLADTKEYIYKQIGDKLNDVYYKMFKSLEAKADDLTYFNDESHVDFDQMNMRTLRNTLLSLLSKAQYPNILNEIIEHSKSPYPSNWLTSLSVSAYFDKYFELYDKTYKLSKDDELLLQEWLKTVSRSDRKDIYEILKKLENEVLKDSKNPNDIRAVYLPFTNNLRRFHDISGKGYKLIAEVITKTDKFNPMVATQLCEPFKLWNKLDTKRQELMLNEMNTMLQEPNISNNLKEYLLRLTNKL

Procathepsin L = Procathepsin L (Homo sapiens, UniProt P07711); assay: cathepsin L inhibitors, dose response, counter-screen for M1/M17 aminopeptidase inhibitor project, biochemical, QFRET, 1536-well (AID 2214)
[22] = M. tuberculosis growth inhibition, HTS (AID 449762); type: functional
[23] = P. falciparum 3D7-ScDHODH growth inhibitors, dose response, SYBR Green, dry powder samples (AID 1159570); type: functional, cell-based;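 also: parasite growth measured after 72 hours of compound exposure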
[24] = P. falciparum Dd2 growth inhibitors, dose response, SYBR Green, cherry-picked samples (AID 1159567); type: functional, cell-based
[25] = P. falciparum Dd2 growth inhibitors, dose response, SYBR Green, dry powder samples (AID 1159566); type: functional, cell-based;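 also: potency for growth inhibition with lower SYBR green DNA signal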
[26] = HepG2 cell cytotoxicity, dose response, cytotoxicity control, cherry-picked samples (AID 1159577); type: functional, cell-based
[27] = P. falciparum ATP4 D1247Y mutant growth inhibitors, dose response, NITD609-resistant line, SYBR Green, dry powder (AID 1159571); type: functional, cell-based;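 also: parasites synchronized at ring stage by sorbitol before testing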

Chain of Keap1/Nrf2 (Q16236 whole entry): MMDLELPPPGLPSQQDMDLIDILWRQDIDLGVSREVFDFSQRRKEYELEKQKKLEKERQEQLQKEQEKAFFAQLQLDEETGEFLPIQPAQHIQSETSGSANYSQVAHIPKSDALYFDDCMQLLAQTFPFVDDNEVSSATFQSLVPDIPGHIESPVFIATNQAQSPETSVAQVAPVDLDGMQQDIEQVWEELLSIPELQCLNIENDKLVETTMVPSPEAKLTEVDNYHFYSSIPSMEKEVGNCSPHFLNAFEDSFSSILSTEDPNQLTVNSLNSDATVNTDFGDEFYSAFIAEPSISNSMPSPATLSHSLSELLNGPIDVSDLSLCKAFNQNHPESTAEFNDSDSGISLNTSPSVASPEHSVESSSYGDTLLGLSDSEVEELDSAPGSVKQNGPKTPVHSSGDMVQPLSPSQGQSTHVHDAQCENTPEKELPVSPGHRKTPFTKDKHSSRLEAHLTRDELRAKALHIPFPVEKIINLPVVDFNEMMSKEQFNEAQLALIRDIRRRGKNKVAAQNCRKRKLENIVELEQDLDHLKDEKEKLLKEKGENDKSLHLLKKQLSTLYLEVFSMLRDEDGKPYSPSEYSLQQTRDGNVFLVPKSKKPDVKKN
Chain of Keap1/Nrf2 (Q14145 whole entry): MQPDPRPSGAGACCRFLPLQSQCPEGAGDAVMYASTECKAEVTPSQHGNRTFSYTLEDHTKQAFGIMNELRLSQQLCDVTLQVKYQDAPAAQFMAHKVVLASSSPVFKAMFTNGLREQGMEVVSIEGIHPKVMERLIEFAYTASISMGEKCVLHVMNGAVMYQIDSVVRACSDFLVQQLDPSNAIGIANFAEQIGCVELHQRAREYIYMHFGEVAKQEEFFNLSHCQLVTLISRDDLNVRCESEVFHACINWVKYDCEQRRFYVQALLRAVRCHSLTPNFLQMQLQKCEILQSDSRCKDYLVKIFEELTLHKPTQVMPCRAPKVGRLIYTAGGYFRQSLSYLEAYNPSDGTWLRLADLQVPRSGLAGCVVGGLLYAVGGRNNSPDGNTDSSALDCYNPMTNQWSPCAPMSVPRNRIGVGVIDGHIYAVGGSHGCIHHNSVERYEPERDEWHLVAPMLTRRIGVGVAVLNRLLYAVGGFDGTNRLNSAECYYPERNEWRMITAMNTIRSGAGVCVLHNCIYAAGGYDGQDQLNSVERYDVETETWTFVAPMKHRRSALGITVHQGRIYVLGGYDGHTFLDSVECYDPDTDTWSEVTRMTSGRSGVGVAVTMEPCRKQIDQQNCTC
Chain of Genome polyprotein (P29990 2492-3391 limits assumed): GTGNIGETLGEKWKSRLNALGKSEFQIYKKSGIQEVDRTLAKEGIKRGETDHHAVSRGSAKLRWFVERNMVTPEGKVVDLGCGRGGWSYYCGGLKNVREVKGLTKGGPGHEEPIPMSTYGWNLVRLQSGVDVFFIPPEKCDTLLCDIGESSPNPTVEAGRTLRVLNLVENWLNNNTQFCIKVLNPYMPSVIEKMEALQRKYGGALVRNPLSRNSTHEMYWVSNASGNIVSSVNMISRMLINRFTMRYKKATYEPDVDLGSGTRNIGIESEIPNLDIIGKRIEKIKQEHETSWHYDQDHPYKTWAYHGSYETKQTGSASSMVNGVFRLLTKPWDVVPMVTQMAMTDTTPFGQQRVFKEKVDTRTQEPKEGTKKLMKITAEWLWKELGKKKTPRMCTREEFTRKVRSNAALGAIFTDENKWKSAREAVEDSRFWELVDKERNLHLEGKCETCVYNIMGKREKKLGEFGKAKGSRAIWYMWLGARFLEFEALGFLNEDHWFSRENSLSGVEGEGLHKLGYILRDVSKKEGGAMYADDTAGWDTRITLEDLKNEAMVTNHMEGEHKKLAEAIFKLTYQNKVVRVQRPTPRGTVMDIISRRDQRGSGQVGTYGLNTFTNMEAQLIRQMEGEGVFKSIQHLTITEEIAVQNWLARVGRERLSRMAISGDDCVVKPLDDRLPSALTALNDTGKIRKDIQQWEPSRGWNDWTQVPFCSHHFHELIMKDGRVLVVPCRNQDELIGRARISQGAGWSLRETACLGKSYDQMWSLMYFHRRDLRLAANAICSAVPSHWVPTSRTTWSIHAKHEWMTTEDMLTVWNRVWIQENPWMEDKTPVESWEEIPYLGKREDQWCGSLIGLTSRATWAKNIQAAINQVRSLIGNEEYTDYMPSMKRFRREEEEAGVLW
Chain of Tyrosine-protein phosphatase non-receptor type 11 (Q06124 whole entry): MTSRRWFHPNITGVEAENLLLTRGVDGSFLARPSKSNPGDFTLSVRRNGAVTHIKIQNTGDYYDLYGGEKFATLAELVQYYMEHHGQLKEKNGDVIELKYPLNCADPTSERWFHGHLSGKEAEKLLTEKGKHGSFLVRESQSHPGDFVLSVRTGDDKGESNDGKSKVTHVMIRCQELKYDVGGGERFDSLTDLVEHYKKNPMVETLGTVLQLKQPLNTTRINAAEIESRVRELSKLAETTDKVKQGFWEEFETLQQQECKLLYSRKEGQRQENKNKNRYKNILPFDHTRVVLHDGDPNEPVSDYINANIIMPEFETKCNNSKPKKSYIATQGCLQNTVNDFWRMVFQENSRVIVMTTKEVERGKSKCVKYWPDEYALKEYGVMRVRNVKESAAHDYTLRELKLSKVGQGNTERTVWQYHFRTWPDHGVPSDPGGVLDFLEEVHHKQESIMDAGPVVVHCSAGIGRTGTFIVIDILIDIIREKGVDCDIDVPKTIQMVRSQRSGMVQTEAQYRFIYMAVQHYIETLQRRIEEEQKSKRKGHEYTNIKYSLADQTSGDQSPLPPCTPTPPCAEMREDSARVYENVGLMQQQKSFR
Chain of Lysine-specific demethylase 4C (Q9H3R0 whole entry): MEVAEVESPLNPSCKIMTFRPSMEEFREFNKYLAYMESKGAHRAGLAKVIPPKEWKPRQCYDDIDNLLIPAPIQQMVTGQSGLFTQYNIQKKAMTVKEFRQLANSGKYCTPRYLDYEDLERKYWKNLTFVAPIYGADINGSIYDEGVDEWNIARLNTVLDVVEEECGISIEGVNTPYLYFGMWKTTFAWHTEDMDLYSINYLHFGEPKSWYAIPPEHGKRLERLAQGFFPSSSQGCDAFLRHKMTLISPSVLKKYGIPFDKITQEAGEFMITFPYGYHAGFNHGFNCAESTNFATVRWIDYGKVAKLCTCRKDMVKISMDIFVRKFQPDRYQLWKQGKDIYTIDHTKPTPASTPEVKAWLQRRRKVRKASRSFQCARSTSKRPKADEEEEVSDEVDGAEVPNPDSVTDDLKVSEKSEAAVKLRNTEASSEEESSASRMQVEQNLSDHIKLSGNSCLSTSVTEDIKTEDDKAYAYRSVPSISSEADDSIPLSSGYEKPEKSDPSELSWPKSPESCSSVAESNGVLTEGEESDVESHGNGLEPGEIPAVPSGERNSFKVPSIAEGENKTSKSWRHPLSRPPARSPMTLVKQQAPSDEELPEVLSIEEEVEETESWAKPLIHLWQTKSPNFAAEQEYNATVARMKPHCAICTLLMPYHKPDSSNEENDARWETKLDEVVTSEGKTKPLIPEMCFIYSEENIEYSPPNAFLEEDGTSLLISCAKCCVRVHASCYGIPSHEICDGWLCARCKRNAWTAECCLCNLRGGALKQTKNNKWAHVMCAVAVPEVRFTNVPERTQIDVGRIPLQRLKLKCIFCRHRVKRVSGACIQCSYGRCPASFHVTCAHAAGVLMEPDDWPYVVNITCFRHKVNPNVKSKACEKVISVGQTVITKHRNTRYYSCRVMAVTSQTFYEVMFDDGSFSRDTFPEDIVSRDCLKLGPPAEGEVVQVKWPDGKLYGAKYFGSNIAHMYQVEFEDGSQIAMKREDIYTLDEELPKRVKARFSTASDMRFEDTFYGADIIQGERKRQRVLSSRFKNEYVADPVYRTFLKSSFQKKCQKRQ
Chain of Bifunctional protein GlmU (P9WMN3 whole entry): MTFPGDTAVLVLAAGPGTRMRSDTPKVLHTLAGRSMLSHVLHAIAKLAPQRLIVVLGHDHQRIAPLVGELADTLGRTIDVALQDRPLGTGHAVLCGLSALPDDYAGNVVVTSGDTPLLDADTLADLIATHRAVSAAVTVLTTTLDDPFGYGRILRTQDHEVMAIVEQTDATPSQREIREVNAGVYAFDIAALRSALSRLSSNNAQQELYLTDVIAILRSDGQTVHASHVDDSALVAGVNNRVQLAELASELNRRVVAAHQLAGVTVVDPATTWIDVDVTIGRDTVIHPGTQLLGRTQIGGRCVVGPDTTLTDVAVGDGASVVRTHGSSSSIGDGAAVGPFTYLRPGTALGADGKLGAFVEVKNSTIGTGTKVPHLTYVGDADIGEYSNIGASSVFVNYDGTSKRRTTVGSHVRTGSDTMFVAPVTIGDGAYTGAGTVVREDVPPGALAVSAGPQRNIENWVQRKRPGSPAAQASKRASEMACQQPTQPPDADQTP
Chain of Dual specificity protein phosphatase 3 (P51452 whole entry): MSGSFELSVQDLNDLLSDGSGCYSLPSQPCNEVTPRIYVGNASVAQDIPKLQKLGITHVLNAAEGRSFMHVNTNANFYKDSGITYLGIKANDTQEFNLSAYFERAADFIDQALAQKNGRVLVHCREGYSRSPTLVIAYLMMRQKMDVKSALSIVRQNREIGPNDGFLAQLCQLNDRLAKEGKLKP
Chain of Sphingosine 1-phosphate receptor 2 (O95136 whole entry): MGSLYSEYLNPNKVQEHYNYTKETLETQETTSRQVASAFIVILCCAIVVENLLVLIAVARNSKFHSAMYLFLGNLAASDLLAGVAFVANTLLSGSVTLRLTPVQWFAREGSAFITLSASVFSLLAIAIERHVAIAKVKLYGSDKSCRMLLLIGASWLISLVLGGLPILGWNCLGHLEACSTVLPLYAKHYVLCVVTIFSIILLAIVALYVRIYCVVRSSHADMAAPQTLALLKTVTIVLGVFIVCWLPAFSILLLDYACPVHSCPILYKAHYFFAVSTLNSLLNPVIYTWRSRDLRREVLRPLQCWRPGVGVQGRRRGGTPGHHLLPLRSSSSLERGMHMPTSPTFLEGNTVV
Chain of Glutathione-S-transferase (Q26513 whole entry): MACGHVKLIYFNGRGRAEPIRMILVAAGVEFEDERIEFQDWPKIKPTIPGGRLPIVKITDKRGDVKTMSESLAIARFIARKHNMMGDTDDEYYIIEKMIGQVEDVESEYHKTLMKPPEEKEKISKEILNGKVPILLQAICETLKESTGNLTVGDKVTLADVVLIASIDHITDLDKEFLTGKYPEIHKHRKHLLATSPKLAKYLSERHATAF

SMILES: NC(=O)c1ccc(NC(=O)C2CCCO2)cc1 (stereo not given)
- EC50 [1]: > 50 µM (not active)

SMILES: Cc1cccc2c1NC(=O)/C2=C1\Nc2ccc(Br)cc2\C1=N/O
- IC50 (Danio rerio): 4.01 µM (not active)

SMILES: O=C(Nc1cccc(Cl)c1)C1=Cc2cc(Cl)ccc2OC1
- CC50 [2]: > 40 µM (active)

SMILES: CCc1c(C)[nH]n(-c2ccc(Oc3ccccc3)c(S(=O)(=O)O)c2)c1=O
- IC50 [3]: 157 µM (active)
- IC50 (Genome polyprotein): 84.5 µM (active)
- IC50 [4]: 4.83 µM (active)
- IC50 [5]: 3.1 µM (active)
- IC50 [6]: 58.8 µM (inactive)
- IC50 [7]: 3.6 µM (active)

SMILES: Cc1ccc(C2CC(c3ccccc3)=NN2C(S)=Nc2ccccc2)o1 (stereo not given)
- AC50 [8]: 20.5 µM (active)
- EC50 (Transthyretin): > 167 µM (inactive)

SMILES: O=C(/C=C/c1ccc(F)cc1)N1CCN(S(=O)(=O)c2ccc([N+](=O)[O-])cc2)CC1
- IC50 [9]: 0.0129 µM (active)

SMILES: COc1cc(/C=N/Nc2ccc(Cl)c(C(=O)O)c2)ccc1OC(=O)c1ccco1
- IC50 (Leucine aminopeptidase): 48.8 µM (active)
- IC50 [10]: 0.792 µM (active)

SMILES: C=CCCCCCCCCC(=O)OC
- IC50 [11]: > 20 µM (inactive)
- IC50 [12]: > 20 µM (inactive)
- IC50 [13]: > 20 µM (inactive)
- IC50 [14]: > 20 µM (inactive)
- IC50 [15]: > 20 µM (inactive)
- IC50 [16]: > 20 µM (inactive)
- IC50 [17]: > 20 µM (inactive)
- IC50 [18]: > 20 µM (inactive)

SMILES: COC(=O)C1=COC(C)C2CN3CCc4c([nH]c5ccccc45)C3CC12 (stereo not given)
- AC50 (Keap1/Nrf2): > 52 µM (inactive)
- IC50 [19]: > 100 µM (active)

SMILES: CC(C)OC(=O)c1c(NC(=O)c2ccco2)sc2c1CCCC2
- IC50 [20]: > 109 µM (inactive)
- IC50 [21]: > 83.2 µM (inactive)

SMILES: O=C(NCCC1=CCCCC1)C1CCN(S(=O)(=O)c2ccc(Br)s2)CC1
- IC50 (Aspartyl aminopeptidase): > 73.5 µM (not active)
- IC50 (Aminopeptidase N): 13.2 µM (active)
- IC50 (Procathepsin L): > 59.6 µM (not active)

SMILES: CC(=O)N1C(Nc2ccc(Cl)cc2)CCN1c1ccccc1 (stereo not given)
- IC50 [22]: > 100 µM (active)

SMILES: C[C@H](CO)N1C[C@H](C)[C@@H](CN(C)CC2CC2)Oc2ccc(NC(=O)Nc3cccc4ccccc34)cc2CC1=O
- AC50 [23]: 2.09 µM (active)
- AC50 [24]: 2.93 µM (active)
- AC50 [25]: 1.72 µM (active)
- AC50 [26]: > 39 µM (inactive)
- AC50 [27]: 3.39 µM (active)
